Measurements taken from the OPERA property sets (Mansouri et al. 2018).

**Q.** Which logP does the source give for `Cc1cncnc1` here?
**A.** 0.01

**Q.** Which logP does the source give for `CCOC(=O)c1cncnc1` here?
**A.** 0.52

**Q.** Which logP does the source give for `CN(C)c1cncnc1` here?
**A.** 0.46

**Q.** Which logP does the source give for `N#Cc1ccnnc1` here?
**A.** -0.63

**Q.** Which logP does the source give for `NC(=O)c1cccnn1` here?
**A.** -0.73

**Q.** For `N#Cc1ncc(Cl)nc1C#N`, which logP is on record?
**A.** 0.95

**Q.** For `COC(=O)c1ncccn1`, which logP is on record?
**A.** -0.71

**Q.** With `Fc1cncc(F)n1` as the molecule, how does the logP read?
**A.** 0.74

**Q.** For `NC(=O)c1cncnc1`, which logP is on record?
**A.** -0.92

**Q.** Which logP does the source give for `CCOC(=O)c1ccnnc1` here?
**A.** 0.23

**Q.** For `CCc1nccnc1OC`, which logP is on record?
**A.** 1.8

**Q.** With `COc1ccnnc1` as the molecule, how does the logP read?
**A.** -0.31

**Q.** With `COC(=O)c1cncnc1` as the molecule, how does the logP read?
**A.** 0.03

**Q.** For `Clc1cccnn1`, which logP is on record?
**A.** 0.1

**Q.** Which logP does the source give for `Clc1ncccn1` here?
**A.** 0.36

**Q.** With `COC(=O)c1cccnn1` as the molecule, how does the logP read?
**A.** -0.43

**Q.** With `CCOC(=O)c1ncccn1` as the molecule, how does the logP read?
**A.** -0.31

**Q.** Which logP does the source give for `CC(=O)Nc1cncnc1` here?
**A.** -0.22

**Q.** For `Nc1ccncn1`, which logP is on record?
**A.** -0.25

**Q.** Which logP does the source give for `CCOc1ncccn1` here?
**A.** 0.74

**Q.** For `COC(=O)c1ccnnc1`, which logP is on record?
**A.** -0.27

**Q.** Which logP does the source give for `CCOc1cncnc1` here?
**A.** 0.56

**Q.** Which logP does the source give for `Cc1ccnnc1` here?
**A.** -0.32

**Q.** With `NC(=O)c1ccnnc1` as the molecule, how does the logP read?
**A.** -0.96

**Q.** With `NC(=O)c1ncccn1` as the molecule, how does the logP read?
**A.** -1.2

**Q.** For `CCCCc1nc(C#N)c(C#N)nc1C`, which logP is on record?
**A.** 2.3

**Q.** Which logP does the source give for `CC(=O)Nc1ccncn1` here?
**A.** 0.03

**Q.** Which logP does the source give for `N#Cc1ncccn1` here?
**A.** -0.31

**Q.** With `CSc1ncccn1` as the molecule, how does the logP read?
**A.** 1.01

**Q.** Which logP does the source give for `Cc1ncccn1` here?
**A.** -0.05

**Q.** Which logP does the source give for `COc1cccnn1` here?
**A.** 0.08

**Q.** For `CN(C)c1ncccn1`, which logP is on record?
**A.** 1.07

**Q.** With `COC(=O)c1ccncn1` as the molecule, how does the logP read?
**A.** -0.27

**Q.** With `Cc1cccnn1` as the molecule, how does the logP read?
**A.** -0.35

**Q.** With `NC(=O)c1ccncn1` as the molecule, how does the logP read?
**A.** -0.68

**Q.** Which logP does the source give for `Nc1cnc(Cl)cn1` here?
**A.** 0.67

**Q.** Which logP does the source give for `COC(=O)c1ccoc1` here?
**A.** 1.28

**Q.** With `COc1ccncn1` as the molecule, how does the logP read?
**A.** 0.54

**Q.** With `Fc1ncccn1` as the molecule, how does the logP read?
**A.** 0.02

**Q.** With `COc1cncnc1` as the molecule, how does the logP read?
**A.** 0.07

**Q.** With `CCOc1cccnn1` as the molecule, how does the logP read?
**A.** 0.63

**Q.** Which logP does the source give for `CN(C)c1ccncn1` here?
**A.** 0.58

**Q.** With `CCOc1nccnc1C` as the molecule, how does the logP read?
**A.** 1.82

**Q.** Which logP does the source give for `Nc1ccnnc1` here?
**A.** -0.53
